Measurements taken from patent US12594276B2, “Inhibitors of human immunodeficiency virus replication” (ViiV Healthcare UK (No.5) Limited, priority 2024, dated 2026).
Like-named read-outs stand apart in the source and are kept apart here.

Tests used:
[1] = tested on: recombinant NL4-3 virus (nef section replaced with Renilla luciferase gene) in MT-2 cells; assay: HIV cell culture assay (antiviral activity, luciferase readout); type: cell-based; details: Renilla, NL43, MT-2 cells infected for 4-5 days with recombinant NL4-3 Renilla luciferase virus
Summary of the method: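 293T transfection → virus harvest at 2-3 d → titer in MT-2 by luciferase. MT-2 + virus + serial cpd dilutions, 4-5 d. Live-cell luciferase read; EC50 by median effect fit.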

[2] = Compound cytotoxicity, XTT-based colorimetric assay; type: cell-based; details: human
Summary of the method: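 Uninfected MT2 cells were treated with compound under the same protocol as the antiviral assay. Viability was read on day 4 with an XTT colorimetric assay, from which CC50 values were derived.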

[3] = uninfected MT2 cells, day 4, XTT, read-out: CC50

Question: Which results are given for `COCCCn1nc(NS(C)(=O)=O)c2c(Cl)ccc(-n3c([C@H](Cc4cc(F)cc(F)c4)NC(=O)Cn4nc(C(F)F)c5c4C(F)(F)[C@@H]4C[C@H]54)nc4nc(C5CCC(F)(F)CC5)cc(CN5CC(C)(C)OC(C)(C)C5)c4c3=O)c21` (atropisomer, axis not shown; (P)) [Example 471, N-[(1S)-1-[(3P)-3-[4-chloro-3-methanesulfonamido-1-(3-methoxypropyl)-1H-indazol-7-yl]-7-(4,4-difluorocyclohexyl)-4-oxo-5-[(2,2,6,6-tetramethylmorpholin-4-yl)methyl]-3H,4H-pyrido[2,3-d]pyrimidin-2-yl]-2-(3,5-difluorophenyl)ethyl]-2-[(2S,4R)-9-(difluoromethyl)-5,5-difluoro-7,8-diazatricyclo[4.3.0.0^2,^4]nona-1(6),8-dien-7-yl]acetamide]?
Answer: EC50 [1]: 38 pM; CC50 at 4 days [2, 3]: > 20000 pM

Question: With `Cc1cc(C2CCC(F)(F)CC2)nc2nc([C@H](Cc3cc(F)cc(F)c3)NC(=O)Cn3nc(C4CC4)c4c3C[C@@H]3C[C@H]43)n(-c3ccc(Cl)c4c(NS(C)(=O)=O)nn(CCN5C[C@H]6C[C@@H](C5)O6)c34)c(=O)c12` (atropisomer, axis not shown; (P)) [Example 7, N-[(1S)-1-[(3P)-3-(4-chloro-3-methanesulfonamido-1-{2-[(1R,5S)-6-oxa-3-azabicyclo[3.1.1]heptan-3-yl]ethyl}-1H-indazol-7-yl)-7-(4,4-difluorocyclohexyl)-5-methyl-4-oxo-3H,4H-pyrido[2,3-d]pyrimidin-2-yl]-2-(3,5-difluorophenyl)ethyl]-2-[(2S,4S)-9-cyclopropyl-7,8-diazatricyclo[4.3.0.0^2,^4]nona-1(6),8-dien-7-yl]acetamide] as the molecule, how does the EC50 [1] read?
Answer: Its EC50 is 9 pM.

Question: And the CC50 at 4 days [2]?
Answer: Its CC50 at 4 days is over 50000 pM.

Question: Which EC50 [1] does the source give for `Cc1cc(C2CCC(F)(F)CC2)nc2nc([C@H](Cc3cc(F)cc(F)c3)NC(=O)Cn3nc(C4CC4)c4c3C[C@@H]3C[C@H]43)n(-c3ccc(Cl)c4c(NS(C)(=O)=O)nn([C@H](C)C(=O)N5C[C@@H](C)O[C@@H](C)C5)c34)c(=O)c12` (relative stereo) [Example 679, N-[(1S)-1-[(3P)-3-{4-chloro-1-[(2R)-1-[(2R,6S)-2,6-dimethylmorpholin-4-yl]-1-oxopropan-2-yl]-3-methanesulfonamido-1H-indazol-7-yl}-7-(4,4-difluorocyclohexyl)-5-methyl-4-oxo-3H,4H-pyrido[2,3-d]pyrimidin-2-yl]-2-(3,5-difluorophenyl)ethyl]-2-[(2R*,4R*)-9-cyclopropyl-7,8-diazatricyclo[4.3.0.0^2,^4]nona-1(6),8-dien-7-yl]acetamide] here?
Answer: Its EC50 is 12 pM.

Question: And the CC50 at 4 days [2, 3]?
Answer: Its CC50 at 4 days is over 20000 pM.

Question: For `Cc1cc(C2CCC(F)(F)CC2)nc2nc([C@H](Cc3cc(F)cc(F)c3)NC(=O)Cn3nc(C(F)F)c4c3C(F)(F)[C@@H]3C[C@H]43)n(-c3ccc(Cl)c4c(NS(C)(=O)=O)nn(CCOC(C)C)c34)c(=O)c12` (atropisomer, axis not shown; (P)) [Example 59, N-[(1S)-1-[(3P)-3-{4-chloro-3-methanesulfonamido-1-[2-(propan-2-yloxy)ethyl]-1H-indazol-7-yl}-7-(4,4-difluorocyclohexyl)-5-methyl-4-oxo-3H,4H-pyrido[2,3-d]pyrimidin-2-yl]-2-(3,5-difluorophenyl)ethyl]-2-[(2S,4R)-9-(difluoromethyl)-5,5-difluoro-7,8-diazatricyclo[4.3.0.0^2,^4]nona-1(6),8-dien-7-yl]acetamide], which EC50 [1] is on record?
Answer: The EC50 was 11 pM.

Question: And the CC50 at 4 days [2, 3]?
Answer: The CC50 at 4 days was over 50000 pM.

Question: For `COCCNc1cc(C2CCC(F)(F)CC2)nc2nc([C@H](Cc3cc(F)cc(F)c3)NC(=O)Cn3nc(C(F)F)c4c3C(F)(F)[C@@H]3C[C@H]43)n(-c3ccc(Cl)c4c(NS(C)(=O)=O)nn(CCN5CCCC(F)(F)C5)c34)c(=O)c12` (atropisomer, axis not shown; (P)) [Example 416, N-[(1S)-1-[(3P)-3-{4-chloro-1-[2-(3,3-difluoropiperidin-1-yl)ethyl]-3-methanesulfonamido-1H-indazol-7-yl}-7-(4,4-difluorocyclohexyl)-5-[(2-methoxyethyl)amino]-4-oxo-3H,4H-pyrido[2,3-d]pyrimidin-2-yl]-2-(3,5-difluorophenyl)ethyl]-2-[(2S,4R)-9-(difluoromethyl)-5,5-difluoro-7,8-diazatricyclo[4.3.0.0^2,^4]nona-1(6),8-dien-7-yl]acetamide], which EC50 [1] is on record?
Answer: The EC50 was 12 pM.

Question: And the CC50 at 4 days [2, 3]?
Answer: Its CC50 at 4 days is over 20000 pM.

Question: For `Cc1cc(C2(F)CCC(F)(F)CC2)nc2nc([C@H](Cc3cc(F)cc(F)c3)NC(=O)Cn3nc(C(F)F)c4c3C(F)(F)[C@@H]3C[C@H]43)n(-c3ccc(Cl)c4c(NS(C)(=O)=O)nn(CCN5CC(C)(C)OC(C)(C)C5)c34)c(=O)c12` (atropisomer, axis not shown; (P)) [Example 501, N-[(1S)-1-[(3P)-3-{4-chloro-3-methanesulfonamido-1-[2-(2,2,6,6-tetramethylmorpholin-4-yl)ethyl]-1H-indazol-7-yl}-5-methyl-4-oxo-7-(1,4,4-trifluorocyclohexyl)-3H,4H-pyrido[2,3-d]pyrimidin-2-yl]-2-(3,5-difluorophenyl)ethyl]-2-[(2S,4R)-9-(difluoromethyl)-5,5-difluoro-7,8-diazatricyclo[4.3.0.0^2,^4]nona-1(6),8-dien-7-yl]acetamide], which EC50 [1] is on record?
Answer: Its EC50 is 16 pM.

Question: And the CC50 at 4 days [2, 3]?
Answer: The CC50 at 4 days was over 20000 pM.

Question: With `CS(=O)(=O)Nc1nn(CCN2CCC(F)(F)CC2)c2c(-n3c([C@H](Cc4cc(F)cc(F)c4)NC(=O)Cn4nc(C(F)F)c5c4C(F)(F)[C@@H]4C[C@H]54)nc4nc(C5CCC(F)(F)CC5)cc(C(F)F)c4c3=O)ccc(Cl)c12` (atropisomer, axis not shown; (P)) [Example 149, N-[(1S)-1-[(3P)-3-{4-chloro-1-[2-(4,4-difluoropiperidin-1-yl)ethyl]-3-methanesulfonamido-1H-indazol-7-yl}-7-(4,4-difluorocyclohexyl)-5-(difluoromethyl)-4-oxo-3H,4H-pyrido[2,3-d]pyrimidin-2-yl]-2-(3,5-difluorophenyl)ethyl]-2-[(2S,4R)-9-(difluoromethyl)-5,5-difluoro-7,8-diazatricyclo[4.3.0.0^2,^4]nona-1(6),8-dien-7-yl]acetamide] as the molecule, how does the EC50 [1] read?
Answer: The EC50 was 18 pM.

Question: What about the CC50 at 4 days [2, 3] of the same molecule?
Answer: The CC50 at 4 days was over 50000 pM.

Question: With `COCCNc1cc(C2CCC(F)(F)CC2)nc2nc([C@H](Cc3cc(F)cc(F)c3)NC(=O)Cn3nc(C(F)F)c4c3C(F)(F)[C@@H]3C[C@H]43)n(-c3ccc(Cl)c4c(NS(C)(=O)=O)nn(CCN5C[C@H](F)C[C@H](F)C5)c34)c(=O)c12` (atropisomer, axis not shown; (P)) [Example 414, N-[(1S)-1-[(3P)-3-(4-chloro-1-{2-[(3R,5S)-3,5-difluoropiperidin-1-yl]ethyl}-3-methanesulfonamido-1H-indazol-7-yl)-7-(4,4-difluorocyclohexyl)-5-[(2-methoxyethyl)amino]-4-oxo-3H,4H-pyrido[2,3-d]pyrimidin-2-yl]-2-(3,5-difluorophenyl)ethyl]-2-[(2S,4R)-9-(difluoromethyl)-5,5-difluoro-7,8-diazatricyclo[4.3.0.0^2,^4]nona-1(6),8-dien-7-yl]acetamide] as the molecule, how does the EC50 [1] read?
Answer: Its EC50 is 10 pM.

Question: And the CC50 at 4 days [2, 3]?
Answer: Its CC50 at 4 days is over 20000 pM.

Question: Which results are given for `CS(=O)(=O)Nc1nn(CCN2CCC(F)(F)CC2)c2c(-n3c([C@H](Cc4cc(F)cc(F)c4)NC(=O)Cn4nc(C(F)F)c5c4C(F)(F)[C@@H]4C[C@H]54)nc4nc(C5CCC(F)(F)CC5)cc(C5CC5)c4c3=O)ccc(Cl)c12` (atropisomer, axis not shown; (P)) [Example 321, N-[(1S)-1-[(3P)-3-{4-chloro-1-[2-(4,4-difluoropiperidin-1-yl)ethyl]-3-methanesulfonamido-1H-indazol-7-yl}-5-cyclopropyl-7-(4,4-difluorocyclohexyl)-4-oxo-3H,4H-pyrido[2,3-d]pyrimidin-2-yl]-2-(3,5-difluorophenyl)ethyl]-2-[(2S,4R)-9-(difluoromethyl)-5,5-difluoro-7,8-diazatricyclo[4.3.0.0^2,^4]nona-1(6),8-dien-7-yl]acetamide]?
Answer: EC50 [1]: 20 pM; CC50 at 4 days [2, 3]: > 50000 pM

Question: Which EC50 [1] does the source give for `CS(=O)(=O)Nc1nn(CCN2C[C@H](F)C[C@H](F)C2)c2c(-n3c([C@H](Cc4cc(F)cc(F)c4)NC(=O)Cn4nc(C(F)F)c5c4C(F)(F)[C@@H]4C[C@H]54)nc4nc(C5CCC(F)(F)CC5)cc(C(F)F)c4c3=O)ccc(Cl)c12` (atropisomer, axis not shown; (P)) [Example 291, N-[(1S)-1-[(3P)-3-(4-chloro-1-{2-[(3R,5S)-3,5-difluoropiperidin-1-yl]ethyl}-3-methanesulfonamido-1H-indazol-7-yl)-7-(4,4-difluorocyclohexyl)-5-(difluoromethyl)-4-oxo-3H,4H-pyrido[2,3-d]pyrimidin-2-yl]-2-(3,5-difluorophenyl)ethyl]-2-[(2S,4R)-9-(difluoromethyl)-5,5-difluoro-7,8-diazatricyclo[4.3.0.0^2,^4]nona-1(6),8-dien-7-yl]acetamide] here?
Answer: Its EC50 is 12 pM.

Question: And the CC50 at 4 days [2, 3]?
Answer: The CC50 at 4 days was over 50000 pM.

Question: With `Cc1cc(C2CCC(F)(F)CC2)nc2nc([C@H](Cc3cc(F)cc(F)c3)NC(=O)Cn3nc(C(F)F)c4c3C(F)(F)[C@@H]3C[C@H]43)n(-c3ccc(Cl)c4c(NS(C)(=O)=O)nn(CCOC(F)F)c34)c(=O)c12` (atropisomer, axis not shown; (P)) [Example 94, N-[(1S)-1-[(3P)-3-{4-chloro-1-[2-(difluoromethoxy)ethyl]-3-methanesulfonamido-1H-indazol-7-yl}-7-(4,4-difluorocyclohexyl)-5-methyl-4-oxo-3H,4H-pyrido[2,3-d]pyrimidin-2-yl]-2-(3,5-difluorophenyl)ethyl]-2-[(2S,4R)-9-(difluoromethyl)-5,5-difluoro-7,8-diazatricyclo[4.3.0.0^2,^4]nona-1(6),8-dien-7-yl]acetamide] as the molecule, how does the EC50 [1] read?
Answer: The EC50 was 23 pM.

Question: And the CC50 at 4 days [2, 3]?
Answer: The CC50 at 4 days was over 50000 pM.
